How the values were obtained:
Details in all cases: 72 h
[1] = system: Calu-3; assay: drug sensitivity score (DSS) for viability; higher = more toxic; extreme values may be limits of the assay
[2] = system: Caco-2; assay: as above
[3] = system: Vero E6; assay: as above
[4] = system: HepG2; assay: as above
[5] = system: U2OS; assay: as above
[6] = system: Calu-3; assay: relative viability EC50 (midpoint between 100% and the lowest measured viability); higher = less toxic
[7] = system: Caco-2; assay: as above
[8] = system: Vero E6; assay: as above
[9] = system: HepG2; assay: as above
[10] = system: U2OS; assay: as above
[11] = system: Calu-3; assay: cell viability relative to DMSO; higher = less toxic
[12] = system: Caco-2; assay: as above
[13] = system: Vero E6; assay: as above
[14] = system: HepG2; assay: as above
[15] = system: U2OS; assay: as above

SMILES | drug sensitivity score [1] | drug sensitivity score [2] | drug sensitivity score [3] | drug sensitivity score [4] | drug sensitivity score [5] | relative viability EC50 [6] | relative viability EC50 [7] | relative viability EC50 [8] | relative viability EC50 [9] | relative viability EC50 [10] | cell viability ([11]; 1 nM) | cell viability ([11]; 10 nM) | cell viability ([11]; 100 nM) | cell viability ([11]; 1000 nM) | cell viability ([11]; 10000 nM) | cell viability ([12]; 1 nM) | cell viability ([12]; 10 nM) | cell viability ([12]; 100 nM) | cell viability ([12]; 1000 nM) | cell viability ([12]; 10000 nM) | cell viability ([13]; 1 nM) | cell viability ([13]; 10 nM) | cell viability ([13]; 100 nM) | cell viability ([13]; 1000 nM) | cell viability ([13]; 10000 nM) | cell viability ([14]; 1 nM) | cell viability ([14]; 10 nM) | cell viability ([14]; 100 nM) | cell viability ([14]; 1000 nM) | cell viability ([14]; 10000 nM) | cell viability ([15]; 1 nM) | cell viability ([15]; 10 nM) | cell viability ([15]; 100 nM) | cell viability ([15]; 1000 nM) | cell viability ([15]; 10000 nM)
O=C(O)c1cc2ccccc2s1 [BL-5583] | 0 | 0 | 0 | 0 | 0 | > 10 µM | > 10 µM | > 10 µM | > 10 µM | > 10 µM | 98% | 106% | 106% | 98.7% | 141% | 97.7% | 107% | 102% | 102% | 100% | 102% | 95.7% | 97.5% | 101% | 93% | 112% | 109% | 97.4% | 98.8% | 110% | 103% | 105% | 100% | 100% | 98%
FC(F)(F)C(F)(F)C(F)(F)N(C(F)(F)C(F)(F)C(F)(F)F)C(F)(F)C(F)(F)C(F)(F)F [perfluamine] | 0 | 0 | 0 | 0 | 0 | > 10 µM | > 10 µM | > 10 µM | > 10 µM | > 10 µM | 103% | 93.2% | 99.7% | 107% | 98.3% | 98% | 96.8% | 95% | 88.6% | 101% | 96.5% | 97.9% | 100% | 103% | 91.1% | 101% | 97.7% | 92.2% | 101% | 93.7% | 105% | 97% | 99.8% | 97.1% | 100%
Cc1cc(C)cc(NC(=O)Nc2ccc(OS(N)(=O)=O)cc2)c1 [S4] | 0 | 0 | 0 | 0 | 0 | > 10 µM | > 10 µM | > 10 µM | > 10 µM | > 10 µM | 104% | 104% | 92.7% | 100% | 89.5% | 105% | 97.6% | 99.3% | 87.4% | 101% | 102% | 103% | 103% | 103% | 96.6% | 107% | 99.3% | 104% | 108% | 97.2% | 102% | 96.9% | 100% | 98.1% | 99%
c1ccc2c(c1)OC[C@H](CNCCCOc1ccc3c(c1)OCO3)O2 [osemozotan] | 0 | 0 | 0 | 0 | 0 | > 10 µM | > 10 µM | > 10 µM | > 10 µM | > 10 µM | 94% | 103% | 109% | 108% | 95.9% | 90.5% | 108% | 101% | 96.5% | 114% | 106% | 104% | 103% | 85.3% | 100% | 99.1% | 105% | 112% | 97% | 106% | 96.9% | 99.2% | 96.9% | 101% | 94.2%
